Measured values taken from publication PMC9203742 (Nature Communications, 2022).
“And” between values parts separate entries of the source, which are not always exact repeats. Identical values can stand only once.

Legend:
[1] = system: MLIs infected with AAV-hSyn-mGlu1^WT; test: sAP-mediated currents (firing rate) of MLIs infected with AAV-hSyn-mGlu1^WT; assay type: cell-based, mouse;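 as to Pd/CTL, AVE: 10 µM Pd complex applied to the bath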;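 as to Pd/CTL, individual MLIs: 10 µM Pd complex applied to the bath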;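 as to firing rate with Pd, AVE(Hz): 10 µM Pd complex applied to the bath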;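 as to number of sAP-mediated currents with Pd, AVE: 10 µM Pd complex applied to the bath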;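 as to number of sAP-mediated currents with Pd, individual MLIs: 10 µM Pd complex applied to the bath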
Protocol: (§1) To monitor the excitability of MLIs, sAP-mediated current responses were extracellulary recorded by a loose cell-attached voltage-clamp at a holding potential of 0 mV. Glass electrodes used for cell-attached recordings had resistances of 3–5 MΩ when filled with ACSF. The current recordings from AAV-infected cells were performed 1−2 weeks after infection. The EPSCs and sAP-mediated currents were recorded using an Axopatch 200B amplifier (Molecular Devices), and the pClamp system (version 9.2; Molecular Devices) was used for data acquisition and analysis. The signals were filtered at 1 kHz and digitized at 4 kHz for the evoked EPSCs and 10 kHz for the sAP-mediated currents.
(§2) Injection of viral solutions was performed as described previously with slight modifications. Briefly, under deep anesthesia, with an intraperitoneal injection of medetomidine (0.3 mg/kg), midazolam (4.0 mg/kg), and butorphanol (5.0 mg/kg), 4 µL of the solutions containing AAV mixture were directly injected into the vermis of cerebellar lobules V-VIII (200-300 µm in depth, 12 µL/h in rate) of WT mice (C57BL/6J, P20-P30) using glass pipette (30–40 µm in diameter) and microinjector (Nanoliter; World Precision Instruments). In all, 1−2 week after injection, the mice were used for each experiment.

[2] = system: Purkinje cells in cerebellar slices from mGlu1^+/+ mice; test: chemLTD recording (PF-EPSC) in Purkinje cells of acute cerebellar slices, mGlu1^+/+ mice; assay type: cell-based, mouse; conditions: DHPG 50 μM for 10 min; t = 31−35 min
Protocol: (§3) Sagittal cerebellar slices were cut with a microslicer (Linear slicer Pro7; DOSAKA EM) in cutting solution buffer and then incubated in ACSF gassed with 5% CO2 and 95% O2 at room temperature.
(§4) Whole-cell patch-clamp recordings were made from visually identified Purkinje cells using a 60× water-immersion objective attached to an upright microscope (BX51WI, Olympus) at room temperature, as described previously. […] Picrotoxin (100 µM; Sigma) was always added to the saline to block inhibitory synaptic transmission.
(§5) To evoke EPSCs derived from CF (CF-EPSCs) and PF (PF-EPSCs) inputs onto Purkinje cells, square pulses were applied through a stimulating electrode placed on the granular layer and the molecular layer (50 µm away from the pial surface), respectively. The selective stimulation of CFs and PFs was confirmed by the paired-pulse depression (PPD) and paired-pulse facilitation (PPF) of EPSC amplitudes at a 50-ms interstimulus interval (ISI), respectively.
(§6) For the LTD sessions, PF-EPSCs were recorded successively at a frequency of 0.1 Hz from Purkinje cells clamped at –80 mV. After a stable PF-EPSC amplitude had been observed for at least 5 min, a conjunctive stimulation that consisted of 30 single PF stimuli together with a 200 ms depolarizing pulse from a holding potential of –60 to +20 mV was applied for LTD induction.
(§7) To chemically induce LTD (chemLTD), 50 µM (S)-3,5-dihydroxyphenylglycine (DHPG) or 1 µM Pd(sulfo-bpy) was applied for 10 min in a current-clamp mode. We often observed a transient decrease in PF-EPSC amplitude after the application of each drug probably because Purkinje cells under current-clamp conditions excite spontaneously to suppress presynaptic function through the retrograde signaling. Access resistances were monitored every 10 s by measuring the peak currents in response to 2 mV, 50-ms hyperpolarizing steps throughout the experiments; the measurements were discarded if the resistance changed by >20% of its original value. The normalized EPSC amplitude on the ordinate represents the EPSC amplitude for the average of six traces for 1 min divided by that of the average of six traces for 1 min immediately before the conjunctive stimulation or the drug application.

[3] = system: Purkinje cells in cerebellar slices from mGlu1^CBC/CBC mice; test: chemLTD recording (PF-EPSC) in Purkinje cells of acute cerebellar slices, mGlu1^CBC/CBC mice; assay type: cell-based, mouse; conditions: DHPG 50 μM for 10 min; t = 31−35 min
Protocol: as §3, §4, §5, §6, §7

[4] = system: MLIs infected with AAV-hSyn-mGlu1^CBC; test: sAP-mediated currents (firing rate) of MLIs infected with AAV-hSyn-mGlu1^CBC; assay type: cell-based, mouse;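 as to Pd/CTL, AVE: 10 µM Pd complex applied to the bath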;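 as to Pd/CTL, individual MLIs: 10 µM Pd complex applied to the bath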;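 as to firing rate with Pd, AVE(Hz): 10 µM Pd complex applied to the bath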;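 as to number of sAP-mediated currents with Pd, AVE: 10 µM Pd complex applied to the bath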
Protocol: as §1, §2

mGlu1 K61H/N264H mutant = target: T1, mGlu1 K61H/N264H mutant (Rattus norvegicus, UniProt P23385, K61H/N264H); test: Fura-2 Ca2+ imaging in HEK293 cells expressing mGlu1 K61H/N264H; assay type: cell-based; conditions: 10 μM metal ion or metal complex
T1 construct: expressed in transfected cells; host or cells: HEK293
T1 sequence (P23385 19-1199 K61H/N264H): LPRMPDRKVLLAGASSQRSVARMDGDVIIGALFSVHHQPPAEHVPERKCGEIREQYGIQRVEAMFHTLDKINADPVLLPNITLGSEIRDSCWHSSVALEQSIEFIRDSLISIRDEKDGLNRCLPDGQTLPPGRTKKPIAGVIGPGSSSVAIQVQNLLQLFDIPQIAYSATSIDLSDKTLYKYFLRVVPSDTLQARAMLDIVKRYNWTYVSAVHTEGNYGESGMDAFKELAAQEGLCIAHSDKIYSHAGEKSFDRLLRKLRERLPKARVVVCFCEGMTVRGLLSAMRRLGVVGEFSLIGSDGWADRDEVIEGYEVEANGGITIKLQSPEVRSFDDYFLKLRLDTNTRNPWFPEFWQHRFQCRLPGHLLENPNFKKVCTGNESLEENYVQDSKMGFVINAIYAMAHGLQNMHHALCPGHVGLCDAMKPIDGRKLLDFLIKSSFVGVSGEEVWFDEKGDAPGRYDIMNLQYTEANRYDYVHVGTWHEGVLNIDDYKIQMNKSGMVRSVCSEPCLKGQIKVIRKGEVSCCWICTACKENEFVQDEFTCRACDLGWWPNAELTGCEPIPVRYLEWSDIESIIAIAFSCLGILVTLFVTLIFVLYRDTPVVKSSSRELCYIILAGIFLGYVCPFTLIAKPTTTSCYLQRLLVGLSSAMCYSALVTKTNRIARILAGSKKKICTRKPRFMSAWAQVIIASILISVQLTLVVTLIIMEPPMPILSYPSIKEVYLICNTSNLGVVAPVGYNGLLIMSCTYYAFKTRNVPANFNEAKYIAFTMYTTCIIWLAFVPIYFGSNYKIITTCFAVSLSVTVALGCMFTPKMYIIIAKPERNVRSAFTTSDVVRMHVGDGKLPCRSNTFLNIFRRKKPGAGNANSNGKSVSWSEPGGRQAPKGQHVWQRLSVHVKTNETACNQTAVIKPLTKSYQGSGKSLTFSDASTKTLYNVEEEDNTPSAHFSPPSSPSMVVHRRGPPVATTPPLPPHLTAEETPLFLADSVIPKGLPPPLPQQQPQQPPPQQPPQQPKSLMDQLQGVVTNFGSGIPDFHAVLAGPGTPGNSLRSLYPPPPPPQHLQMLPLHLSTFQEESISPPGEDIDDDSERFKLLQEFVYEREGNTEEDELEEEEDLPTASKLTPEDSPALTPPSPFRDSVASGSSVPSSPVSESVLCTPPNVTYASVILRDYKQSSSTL

mGlu1 P58H/N264H mutant = target: T2, mGlu1 P58H/N264H mutant (Rattus norvegicus, UniProt P23385, N264H/P58H); test: Fura-2 Ca2+ imaging in HEK293 cells expressing mGlu1 P58H/N264H; assay type: cell-based; conditions: 10 μM metal ion or metal complex
T2 construct: expressed in transfected cells; host or cells: HEK293
T2 sequence (P23385 19-1199 P58H/N264H): as the sequence (P23385 19-1199 K61H/N264H) above, with P40H, H43K counted along it

[5] = system: MLIs surrounded by mGlu1(N264H)-expressing Purkinje cells (AAV-L7-mGlu1^CBC); test: sAP-mediated currents (firing rate) of MLIs in slices infected with AAV-L7-mGlu1^CBC; assay type: cell-based, mouse; conditions: AAV-L7-mGlu1CBC;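 also: 10 µM Pd complex applied to the bath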
Protocol: as §1, §2

mGlu1 E60H/N264H mutant = target: T3, mGlu1 E60H/N264H mutant (Rattus norvegicus, UniProt P23385, E60H/N264H); test: Fura-2 Ca2+ imaging in HEK293 cells expressing mGlu1 E60H/N264H; assay type: cell-based; conditions: 10 μM metal ion or metal complex
T3 construct: expressed in transfected cells; host or cells: HEK293
T3 sequence (P23385 19-1199 E60H/N264H): as the sequence (P23385 19-1199 K61H/N264H) above, with E42H, H43K counted along it

[6] = Suppl Fig14d, AAV-hSyn-mGlu1WT, mean of 12 cells
[7] = Suppl Fig14d, AAV-hSyn-mGlu1CBC, mean of 15 cells

N[C@H](C(=O)O)c1cc(O)cc(O)c1 [DHPG, (S)-3,5-dihydroxyphenylglycine]
firing rate, DHPG (50uM), AVE(Hz) ([1]; Suppl Fig14d, AAV-hSyn-mGlu1WT, mean): 10.6722 Hz
DHPG/CTL, AVE [1, 6]: 1.47
sAP events, DHPG (50uM), AVE [1, 6]: 320.167
Number of spontaneous action potentials (sAP) ([1]; bath application of 50 µM DHPG): clearly increased
chemLTD: normalized PF-EPSC amplitude [2]: 55 ± 7%
chemLTD: normalized PF-EPSC amplitude [3]: 56 ± 6%
firing rate, DHPG (50uM), AVE(Hz) ([4]; Suppl Fig14d, AAV-hSyn-mGlu1CBC, mean): 11.5511 Hz
DHPG/CTL, AVE [4, 7]: 1.507
sAP events, DHPG (50uM), AVE [4, 7]: 346.533
Number of spontaneous action potentials (sAP) ([4]; bath application of 50 µM DHPG): clearly increased

[Pd+2] [Pd^2+]
Receptor activation ([Ca2+]i change, Δratio) (mGlu1 K61H/N264H mutant): also activated
firing rate with Pd, AVE(Hz) ([1]; AAV-hSyn-mGlu1WT, Pd): 8.021 Hz
number of sAP-mediated currents with Pd, individual MLIs ([1]; AAV-hSyn-mGlu1WT, Pd): 195 and 227 and 165 and 235 and 230 and 276 and 213 and 238 and 272 and 431 and 142 and 211 and 228 and 253 and 240 and 294
number of sAP-mediated currents with Pd, AVE ([1]; AAV-hSyn-mGlu1WT, Pd, average of 16 MLIs): 240.625
Pd/CTL, AVE ([1]; AAV-hSyn-mGlu1WT, average of 16 MLIs): 1.02
Pd/CTL, individual MLIs ([1]; AAV-hSyn-mGlu1WT, ratio of sAP-mediated currents Pd vs CTL): 0.9466 and 0.8833 and 1.065 and 1.119 and 1.05 and 1.091 and 1.081 and 0.9958 and 0.8947 and 1.005 and 0.9161 and 0.8474 and 1.013 and 1.182 and 1.106 and 1.126
Receptor activation ([Ca2+]i change, Δratio) (mGlu1 P58H/N264H mutant): also activated
firing rate with Pd, AVE(Hz) ([4]; AAV-hSyn-mGlu1CBC, Pd): 9.847 Hz
number of sAP-mediated currents with Pd, AVE ([4]; AAV-hSyn-mGlu1CBC, Pd, average of 22 MLIs): 295.409
Pd/CTL, AVE ([4]; AAV-hSyn-mGlu1CBC, average of 22 MLIs): 1.392
Pd/CTL, individual MLIs ([4]; AAV-hSyn-mGlu1CBC, ratio of sAP-mediated currents Pd vs CTL): 1.204 and 2.167 and 1.052 and 0.9801 and 1.6822 and 1.455 and 1.074 and 1.288 and 1.082 and 1.081 and 1.083 and 2.412 and 1.119 and 3.478 and 1.177 and 1.12 and 1.045 and 1.16 and 1.215 and 1.142 and 1.333 and 1.265
firing rate with Pd, AVE(Hz) ([5]; Pd): 8.376 Hz
number of sAP-mediated currents with Pd, individual MLIs ([5]; Pd): 269 and 246 and 275 and 319 and 316 and 259 and 286 and 137 and 343 and 147 and 282 and 292 and 186
number of sAP-mediated currents with Pd, AVE ([5]; Pd, average of 15 MLIs): 251.267
Pd/CTL, AVE ([5]; average of 15 MLIs): 1.024
Pd/CTL, individual MLIs ([5]; ratio of sAP-mediated currents Pd vs CTL): 0.9181 and 1.134 and 0.9516 and 1.085 and 1.01 and 1.008 and 1.018 and 1.161 and 1.003 and 1.105 and 0.9786 and 0.9216 and 1.028 and 0.9928 and 1.051
Receptor activation ([Ca2+]i change, Δratio) (mGlu1 E60H/N264H mutant): also activated
